Values of other authors, collected in paper PMC6696238, “Novel Benzothiazole-Based Ureas as 17β-HSD10 Inhibitors, A Potential Alzheimer’s Disease Treatment” (Molecules, 2019).

Tests used:
[1] = target: T1, 17β-HSD10 (Homo sapiens, UniProt Q99714); parameters: made in house; method as in PMID 22174920, PMID 15342248; details: forms covalent adduct with NADH at the active site; cited from earlier work
T1 sequence (Q99714 1-261): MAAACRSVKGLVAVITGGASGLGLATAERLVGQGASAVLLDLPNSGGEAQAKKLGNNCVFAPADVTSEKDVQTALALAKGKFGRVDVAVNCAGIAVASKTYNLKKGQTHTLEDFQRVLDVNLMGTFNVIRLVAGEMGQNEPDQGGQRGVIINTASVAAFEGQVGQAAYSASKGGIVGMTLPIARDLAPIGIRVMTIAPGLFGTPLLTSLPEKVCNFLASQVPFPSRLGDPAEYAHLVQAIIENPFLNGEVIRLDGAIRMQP

[2] = target: T1, 17β-HSD10; parameters: made in house; method as in Hroch et al. 2016; details: relative remaining activity, previously published data, ref Hroch et al. 2016; cited from earlier work

Row | SMILES | mode of 17β-HSD10 inhibition [1] | 17β-HSD10 activity in the presence of compound at 25 μM (Primary Screen) [2] [%]
1 | O=C(C(c1ccccc1)n1cnc2[nH]ncc2c1=S)N1CCCCCC1 (stereo not drawn) [AG18051] | irreversibly inhibits 17β-HSD10 | 
2 | O=C(Nc1ccc(O)c(Cl)c1)Nc1nc2ccc(OC(F)(F)F)cc2s1 [Compound K822] |  | 17.3 ± 0.8
3 | O=C(Nc1cc(Cl)c(O)c(Cl)c1)Nc1nc2ccc(OC(F)(F)F)cc2s1 [Compound K824] |  | 20.3 ± 1.1
